# Patent US7303770B2, “Cancer chemoprotective food products” (Johns Hopkins School of Medicine, priority 1997, dated 2007)
# What was measured:
# [1] = test system: QR activity in Hepa 1c1c7 murine hepatoma cells; experiment: Inducer activity: QR induction in Hepa 1c1c7 microtiter bioassay, extracts untreated with myrosinase; assay type: cell-based; conditions: without myrosinase hydrolysis
# Method: Inducer activity or Phase 2 enzyme-inducing activity is a measure of the ability of a compound(s) to induce Phase 2 enzyme activity. In the present invention, inducer activity is measured by means of the murine hepatoma cell bioassay of QR activity in vitro. Inducer activity is defined herein as QR inducing activity in Hepa 1c1c7 cells (murine hepatoma cells) incubated with extracts of sprouts, seeds or other plant parts untreated with myrosinase. Inducer activity is measured in Hepa 1c1c7 murine hepatoma cells grown in 96-well microtiter plates. Typically 10,000 Hepa 1c1c7 cells are introduced into each well. Hepatoma cells are grown for 24 hours and a plant extract containing microgram quantities of fresh plant tissue is serially diluted across the microtiter plates into fresh culture medium containing 0.15 ml αMEM culture medium amended with 10% Fetal Calf Serum (FCS) and streptomycin and penicillin. The cells are further incubated for 48 hours. QR activity (based on the formation of the blue-brown reduced tetrazolium dye) is measured with an optical microtiter plate scanner in cell lysates prepared in one plate, and related to its protein concentration. Quantitative information on specific activity of QR is obtained by computer analysis of the absorbances. One unit of inducer activity is the amount that when added to a single microtiter well doubles the QR activity. […]
# [2] = test system: QR activity in Hepa 1c1c7 murine hepatoma cells; experiment: Inducer potential: QR induction in Hepa 1c1c7 microtiter bioassay, myrosinase-treated extracts; assay type: cell-based; conditions: ammonium salts of isolated peaks
# Method: Inducer potential or Phase 2 enzyme-inducing potential is a measure of the combined amounts of inducer activity in plant tissue provided by isothiocyanates, plus glucosinolates that can be converted by myrosinase to isothiocyanates. Glucosinolates are not themselves inducers of mammalian Phase 2 enzymes, whereas isothiocyanates are inducers. Inducer potential therefore is defined herein as QR activity in murine 1c1c7 hepatoma cells incubated with myrosinase-treated extracts of the sprouts, seeds or other plant parts. In the present invention therefore inducer potential is measured by means of the murine hepatoma cell bioassay of QR activity in vitro as described above. Inducer potential is measured in Hepa 1c1c7 murine hepatoma cells grown in 96-well microtiter plates. […] Hepatoma cells are grown for 24 hours and a plant extract containing microgram quantities of fresh plant tissue is serially diluted across the microtiter plates into fresh culture medium containing 0.15 ml αMEM culture medium amended with 10% Fetal Calf Serum (FCS) and streptomycin and penicillin. […] QR activity (based on the formation of the blue-brown reduced tetrazolium dye) is measured with an optical microtiter plate scanner in cell lysates prepared in one plate, and related to its protein concentration. Quantitative information on specific activity of QR is obtained by computer analysis of absorbances. […]
# [3] = test system: QR activity in Hepa 1c1c7 murine hepatoma cells; conditions: reported values, cited from earlier work
Structure (SMILES),Inducer activity of isolated PIC peaks [1],Inducer potency after myrosinase hydrolysis [2],Inducer potency corresponding to reported CD value ([3]; Hepa 1c1c7),CD value (concentration required to double QR specific activity) ([3]; Hepa 1c1c7 murine hepatoma cells) [µM]
"C[S+]([O-])CCCC/C(=N\OS(=O)(=O)O)S[C@@H]1O[C@H](CO)[C@@H](O)[C@H](O)[C@H]1O (single isomer, unassigned; peak a) [Peak A, 4-methylsulfinylbutyl glucosinolate]",no significant inducer activity,"36,100 units/μmol",–,–
"CSCCCCC(=NOS(=O)(=O)O)S[C@@H]1O[C@H](CO)[C@@H](O)[C@H](O)[C@H]1O (single isomer, unassigned; peak c) [Peak C, 4-methythiobutyl glucosinolate]",no significant inducer activity,"4,360 units/μmol",–,–
C[S+]([O-])CCCCN=C=S (stereo not drawn) [sulforaphane],–,–,"33,333 units/μmol",0.2
